# Like-named read-outs stand apart in the source and are kept apart here.
# How the values were obtained:
# [1] = system: 5177 transformed tobacco lines and control lines; assay: Norflurazon resistance analysis (watering with Norflurazon solution); type: in vivo; conditions: 3 μM Norflurazon solution
# Experimental: An experiment was set up to determine the efficacy of the Crt I trait with respect to resistance to the herbicide Norflurazon. Three 5177 transformed lines, 74-1B-P, 74-2-A, and 74-7-C and three control lines were planted. Plants were grown for seven weeks and then watered with a 3 μM Norflurazon solution. Plants negative for the presence of the crtI plastid-borne gene were bleached by Norflurazon treatment, positive plants stayed green and continued to grow.
# [2] = system: EPSPS enzyme; type: biochemical
# Experimental: (§1) Methods for the analysis of EPSPS enzyme activity are described in Padgette et al. (J. Biol. Chem. (1988)263:1798-1802 and Arch. Biochem. Biophys. (1987)258:564-573) and Wibbenmeyer et al. (Biochem. Biophys. Res. Commun. (1988)153:760-766).
# (§2) In addition, other transplastomic lines were analyzed for tolerance to spraying with various levels of glyphosate as described above. Specific activity is measured as the amount of exogenously added Phosphoenol pyruvate (PEP) converted to […] per unit protein in the plant extract. Addition of glyphosate tests sensitivity of the EPSPS enzyme to glyphosate.
# [3] = molecular target: T1, EPSPS enzyme (Agrobacterium sp., UniProt Q9R4E4); type: biochemical
# T1 construct: from tissue; host or cells: extracts of wild-type and transplastomic tobacco plants
# T1 sequence (Q9R4E4 whole entry): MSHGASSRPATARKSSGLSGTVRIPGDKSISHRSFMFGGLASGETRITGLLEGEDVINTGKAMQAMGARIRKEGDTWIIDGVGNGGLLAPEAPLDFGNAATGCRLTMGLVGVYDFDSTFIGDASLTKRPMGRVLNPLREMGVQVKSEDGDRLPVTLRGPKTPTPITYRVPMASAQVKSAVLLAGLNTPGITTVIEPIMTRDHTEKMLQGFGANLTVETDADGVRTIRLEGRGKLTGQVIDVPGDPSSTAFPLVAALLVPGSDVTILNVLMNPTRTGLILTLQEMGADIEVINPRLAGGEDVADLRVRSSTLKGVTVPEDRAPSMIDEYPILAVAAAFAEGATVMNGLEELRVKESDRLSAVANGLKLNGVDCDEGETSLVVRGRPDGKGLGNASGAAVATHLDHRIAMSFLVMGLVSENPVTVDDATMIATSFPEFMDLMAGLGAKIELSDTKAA
# Experimental: as §1, §2
# [4] = system: transplastomic tobacco lines containing EPSPS genes; assay: In vitro glyphosate selection of shoots from plastid transformation with EPSPS constructs; type: cell-based
# Experimental: (§3) A transplastomic tobacco line homoplasmic for the construct pMON38773 was tested in vitro to determine the highest level of glyphosate tolerance. Explant tissue was prepared from leaf pieces of nontransgenic wild type tobacco control, Havanna, plants and the homoplasmic tobacco line 38773-6 and cultured for regeneration of shoots on TSO medium (described above) supplemented with glyphosate levels of 50 μM, 75 μM, 100 μM, 150 μM and 200 μM. The number of explants producing shoots was determined at 3 weeks and 6 weeks after explant preparation and culturing on glyphosate containing medium.
# Additional transplastomic lines were tested in vitro for glyphosate tolerance as bed above.
# The numbers in parentheses are the number of shoots resistant to selection at 1 mM glyphosate.
# [5] = system: Wild type tobacco (nontransformed control plants); assay: Whole plant glyphosate spray test (track sprayer); type: in vivo
# Experimental: (§4) Homoplasmic tobacco plants of the line 38773-6 are sprayed with glyphosate using a track sprayer at concentrations corresponding to 0 oz/acre, 16 oz/acre, 32 oz/acre and 64 oz/acre to test for whole plant tolerance. Plant height was measured before and after s praying with glyphosate. The vegetative injury data was collected two weeks after spraying, while the reproductive injury data was collected at plant maturity.
# (§5) Tolerance is characterized by the continued growth and greening of tissues sprayed with glyphosate. However, as the concentration of glyphosate applied increased, there was a corresponding increase in the level of vegetative injury.
# [6] = system: Homoplasmic tobacco plants of the line 38773-6; assay: Whole plant glyphosate spray test (track sprayer); type: in vivo
# Experimental: as §4, §5
# [7] = system: transplastomic (and nuclear pMON10154) tobacco lines expressing EPSPS; assay: Glyphosate spray tolerance of other lines expressing EPSPS; type: in vivo
# Experimental: as §4, §2
# [8] = system: nontransgenic wild type tobacco control, Havanna; assay: In vitro glyphosate tolerance: shoot regeneration from leaf explants on TSO medium with glyphosate; type: cell-based, Nicotiana tabacum cv. Havana; conditions: for Number Regenerating 3 Weeks / Number Regenerating 6 Weeks: 10 explants
# Experimental: as §3
# [9] = system: homoplasmic tobacco line 38773-6; assay: as above; type: cell-based, Nicotiana tabacum cv. Havana
# Experimental: as §3
# [10] = system: Nb2 cell line; assay: Nb2 cell proliferation bioactivity assay (MTS); type: cell-based; conditions: pH adjusted and centrifuged extract of pMON38794 tobacco, 48 hrs, MTS (FIG. 5)
# Experimental: Bioactivity of the pH adjusted and centrifuged extract was tested using cells from an Nb2 cell line. These cells proliferate in the presence of growth hormone and other […] type compounds. The assay involves putting various concentrations of growth hormone-containing extract into a 96 well plate. Then a constant amount of cells are added to each well. The plate is incubated for 48 hrs and then a reagent called MTS is added. Metabolizing cells take up the MTS and convert it to a blue colored substance. The more cells there are the more blue color in the well. The blue color is measured using a spectrophotometer. The number of cells should be proportional to the concentration of growth hormone in the media. At some high concentration one expects that the cells will become saturated with growth hormone and that the dose response will level off. At very low hGH concentrations essentially no enhanced growth is seen.
# [11] = line pMON10154 (nuclear), glyphosate spray
# [12] = line pMON30123, glyphosate spray
# [13] = line pMON30130, glyphosate spray
# [14] = line pMON38773, glyphosate spray
# [15] = line pMON38798, glyphosate spray
# [16] = line pMON45201, glyphosate spray
# [17] = line 38773-6, glyphosate 50 μM, 8 explants
# [18] = line 38773-6, glyphosate 75 μM, 18 explants
# [19] = line 38773-6, glyphosate 100 μM, 17 explants
# [20] = line 38773-6, glyphosate 150 μM, 18 explants
# [21] = line 38773-6, glyphosate 200 μM, 16 explants
compound,measurement,setting,value
CNc1cnn(-c2cccc(C(F)(F)F)c2)c(=O)c1Cl [Norflurazon],Norflurazon resistance,[1]; control plants,susceptible
same,Result (Norflurazon resistance),[1]; line 74-1B-P (homoplasmic 5177),Resistant
same,Result (Norflurazon resistance),[1]; line 74-2-A (homoplasmic 5177),Resistant
same,Result (Norflurazon resistance),[1]; line 74-7-C (homoplasmic 5177),Resistant
same,Result (Norflurazon resistance),[1]; line 75-5D-A (Control),Susceptible
same,Result (Norflurazon resistance),[1]; line 2560A Xanthi (Control),Susceptible
same,Result (Norflurazon resistance),"[1]; line Xanthi (Control), plants grown seven weeks",Susceptible
same,Norflurazon resistance,[1]; three homoplasmic 5177 tobacco lines,resistant
"O=C(O)CNCP(=O)(O)O [glyphosate, N-phosphonomethylglycine]",SPECIFIC ACTIVITY (nmol/min/mg) +1 mM gly,"[2]; Wild-type plant extract, No gly: 3.4",0 nmol/min/mg
same,SPECIFIC ACTIVITY (nmol/min/mg) +1 mM gly,"[2]; line pMON30123 extract, No gly: 4.0",0 nmol/min/mg
same,SPECIFIC ACTIVITY (nmol/min/mg) +1 mM gly,"[2]; line pMON30130 extract, No gly: 6.2",0 nmol/min/mg
same,SPECIFIC ACTIVITY (nmol/min/mg) +1 mM gly,"[2]; line pMON38798 extract, No gly: 17.2",14.7 nmol/min/mg
same,SPECIFIC ACTIVITY (nmol/min/mg) +1 mM gly,"[2]; line pMON45204 extract, No gly: 339.9",371.8 nmol/min/mg
same,SPECIFIC ACTIVITY (nmol/min/mg) +1 mM gly,"[3]; line pMON10154 (nuclear CP4 control) extract, No gly: 19.0",18.4 nmol/min/mg
same,SPECIFIC ACTIVITY (nmol/min/mg) +1 mM gly,"[3]; line pMON38773 extract, No gly: 16.7",6.7 nmol/min/mg
same,glyphosate selection level tolerated by generated tobacco lines,"[4]; in vitro selection, Table 5 lines",1 mM
same,No. of shoots Gly 50 uM(+),"[4]; pMON38766 (T7), 6 Spec/strep (+) shoots",0
same,No. of shoots Gly 50 uM(+),"[4]; pMON38766 (Wild), 1 Spec/strep (+) shoot",0
same,No. of shoots Gly 50 uM(+),"[4]; pMON38773 (Wild), 9 Spec/strep (+) shoots",5
same,No. of shoots positive at 1 mM glyphosate,"[4]; pMON38773 (Wild), number in parentheses",1
same,No. of shoots Gly 50 uM(+),"[4]; pMON38793, 8 Spec/strep (+) shoots",0
same,No. of shoots Gly 50 uM(+),"[4]; pMON38796, 4 Spec/strep (+) shoots",0
same,No. of shoots Gly 50 uM(+),"[4]; pMON38797 (Wild), 2 Spec/strep (+) shoots",0
same,No. of shoots Gly 50 uM(+),"[4]; pMON38798, 6 Spec/strep (+) shoots",6
same,No. of shoots Gly 50 uM(+),"[4]; pMON45201, 9 Spec/strep (+) shoots",3
same,Reproductive tolerance (oz/acre),"[5]; Wild-type, glyphosate spray",0 oz/acre
same,Vegetative tolerance (oz/acre),"[5]; Wild-type, glyphosate spray",0 oz/acre
same,susceptibility to sprayed glyphosate,"[5]; nontransformed control plants, glyphosate concentrations as low as 16 oz/acre",highly susceptible
same,glyphosate concentration tolerated (vegetative tissue injury),"[6]; initial results, homoplasmic tobacco lines sprayed",16 oz/acre
same,glyphosate rate with a good level of tolerance,"[6]; transplastomic lines, spray",32 oz/acre
same,Reproductive tolerance (oz/acre),[7]; [11],64 oz/acre
same,Vegetative tolerance (oz/acre),[7]; [11],128 oz/acre
same,Reproductive tolerance (oz/acre),[7]; [12],0 oz/acre
same,Vegetative tolerance (oz/acre),[7]; [12],0 oz/acre
same,Reproductive tolerance (oz/acre),[7]; [13],0 oz/acre
same,Vegetative tolerance (oz/acre),[7]; [13],0 oz/acre
same,Reproductive tolerance (oz/acre),[7]; [14],16 oz/acre
same,Vegetative tolerance (oz/acre),[7]; [14],32 oz/acre
same,Reproductive tolerance (oz/acre),[7]; [15],16 oz/acre
same,Vegetative tolerance (oz/acre),[7]; [15],32 oz/acre
same,Reproductive tolerance (oz/acre),[7]; [16],32 oz/acre
same,Vegetative tolerance (oz/acre),[7]; [16],32 oz/acre
same,glyphosate level tolerated,[7]; subsequent experiments with additional transformed transplastomic lines,64 oz/acre
same,% Explant Regeneration,[8]; glyphosate 50 μM,0%
same,Number Regenerating 3 Weeks,[8]; glyphosate 50 μM,0
same,Number Regenerating 6 Weeks,[8]; glyphosate 50 μM,0
same,% Explant Regeneration,[8]; glyphosate 75 μM,0%
same,Number Regenerating 3 Weeks,[8]; glyphosate 75 μM,0
same,Number Regenerating 6 Weeks,[8]; glyphosate 75 μM,0
same,% Explant Regeneration,[8]; glyphosate 100 μM,0%
same,Number Regenerating 3 Weeks,[8]; glyphosate 100 μM,0
same,Number Regenerating 6 Weeks,[8]; glyphosate 100 μM,0
same,% Explant Regeneration,[8]; glyphosate 150 μM,0%
same,Number Regenerating 3 Weeks,[8]; glyphosate 150 μM,0
same,Number Regenerating 6 Weeks,[8]; glyphosate 150 μM,0
same,% Explant Regeneration,[8]; glyphosate 200 μM,0%
same,Number Regenerating 3 Weeks,[8]; glyphosate 200 μM,0
same,Number Regenerating 6 Weeks,[8]; glyphosate 200 μM,0
same,% Explant Regeneration,"[9]; line 38773-6, glyphosate 50 μM",100%
same,Number Regenerating 3 Weeks,[9]; [17],5
same,Number Regenerating 6 Weeks,[9]; [17],8
same,% Explant Regeneration,"[9]; line 38773-6, glyphosate 75 μM",100%
same,Number Regenerating 3 Weeks,[9]; [18],14
same,Number Regenerating 6 Weeks,[9]; [18],18
same,% Explant Regeneration,"[9]; line 38773-6, glyphosate 100 μM",88%
same,Number Regenerating 3 Weeks,[9]; [19],12
same,Number Regenerating 6 Weeks,[9]; [19],15
same,% Explant Regeneration,"[9]; line 38773-6, glyphosate 150 μM",89%
same,Number Regenerating 3 Weeks,[9]; [20],10
same,Number Regenerating 6 Weeks,[9]; [20],16
same,% Explant Regeneration,"[9]; line 38773-6, glyphosate 200 μM",86%
same,Number Regenerating 3 Weeks,[9]; [21],8
same,Number Regenerating 6 Weeks,[9]; [21],15
same,glyphosate level tolerated in vitro,"[9]; tobacco expressing EPSPS in plastids (pMON38773), shoot regeneration",at least 200 μM
"hGH: Human Growth Hormone expressed from tobacco plastids (pMON38794), tested as pH adjusted and centrifuged leaf extract",bioactivity: absorbance vs hGH concentration,[10],sigmoidal shape
